Counter-ions that a name gives are not always drawn.
These compounds were tested on OPC differentiation (assay: Oligodendrocyte precursor cell (OPC) differentiation assay (MBP immunocytochemistry)). Conditions: Rattus norvegicus, Oligodendrocyte precursor cell, 96 h; 0.3 nM-10 uM, 4 days, FIG. 1; read-out: EC50, promotion of OPC differentiation (MBP+ population).
Format: cell-based, rat
Protocol: The effects of small-molecule inverse agonists and neutral antagonists of histamine receptor 3 (H3R) on OPC differentiation were determined using the following assay.
The enriched OPC were obtained from dissecting 2-d-old rat pups forebrain. The pups were anesthetized and decapitated. Then the skull was cut with microdissecting scissors and the cortex was taken out with Dumont forceps. The meninges were removed with fine tips. After repeated trituration of the cortex through cell strainer, cells were re-suspended with the culture media consisted of DMEM supplemented with 20% Fetal bovine serum (Invitrogen, Carlsbad, Calif.), glutamine (4 mM, (Invitrogen), and plated onto poly-D-lysine (PDL, […] for 1 h, Sigma, St. Louis, Mo.)-coated T75 flasks. The resulting cultures were fed with fresh culture media twice per week and almost all the neurons will die due to the high concentration of serum in one week. Then the mixed glial cells were subjected to a series shake-off procedure to obtain pure OPCs two weeks later. Specifically, the mixed glial cells were shaken initially for 1 hour at 100 rpm to remove microglia and shaken for 20-22 hours at 37° C. at 200 rpm to enrich OPCs. OPCs were collected by centrifugation at 1200 rpm for 5 min, re-suspended in basal chemically defined medium (BDM). BDM consisted of DMEM supplemented with N2 medium (100×, Invitrogen), glutamine (4 mM, Invitrogen), BSA (0.1 mg/ml, Sigma), hydrocortisone (20 nM, Sigma), selenium (30 nM, Sigma) and biotin (10 nM, Sigma). OPCs were plated on poly-ornithine (PO, 50 μg/ml for 1 hr, Sigma)-coated culture dishes and maintained in BDM supplemented with bFGF (10 ng/ml, Invitrogen) and PDGF (10 ng/ml, PeproTech, Rocky Hill, N.J.) before experimental manipulation. OPCs were 95% pure judged by A2B5+ staining.
To initiate OPC differentiation, OPCs were firstly treated with 0.05% Trypsin/EDTA, and seeded into PO-coated 384-mini well plate at a density of 2,000 to 5,000 cells/well. Each test compound was dissolved in DMSO at the concentration of 10 mM for the assay. Compounds at different concentrations (full dose curve, 0.3 nM-10 uM) were added into the OPC culture in duplicates with Echo machine (Thermo, Waltham, Mass.). OPCs were cultured in BDM supplemented with N-acetyl-L-cystenine (30 μM, Sigma) to differentiate into mature oligodendrocytes for 4 days. BDM comprise DMEM (Invitrogen), N2 (100×, Invitrogen), L-Glu (50×, Invitrogen), Sodium Pyruvate (100×, Invitrogen), BSA (0.1%, Sigma), Biotin (10 nM, Sigma), hydrocortisone (10 nM, Sigma). The resulting cultures were fixed with 4% polyformaldehyde (Sigma) and samples were blocked with the blocking buffer (Donkey Serum 3%, Sigma; Triton X-100 0.04%, Sigma). Then fixed cells were incubated in primary antibodies (anti-myelin basic protein, MBP antibody, 600× dilution in blocking buffer) overnight at 4° C., washed thoroughly with PBS and then incubated with Alexa 488-labeled secondary antibody (Molecular Probes, Invitrogen) for 2 h at R.T; then washed thoroughly with PBS and stained with Dapi (1 ug/ml, Sigma),
The full-plate immunocytochemistry staining was read by an automatic image-based analysis system-Cellomics (Thermo) and the raw data for each well was acquired as percentage of MBP+ population as follows: Pictures of eight fields per well were captured and analyzed quantitatively; the well data is the average of 8 fields. The intensity of anti-MBP staining in the cytosol was used as the criteria of positive objects. The threshold of positive objects was set based on the average intensity of the positive control well, for which triiodothyronine (15 nM) was used. Then the data was analyzed and presented as fold change of the number of the vehicle control well. Graphs were generated by softwares: Microsoft Excel and IDBS XL fits. The curve fitting was performed with software XL fits to derive EC50 of the positive compounds.
All data except FIG. 1 are given as mean±standard error of the mean (SEM). […]
In the case of `CC(C)N1CCC(OC2CCN(c3ccc(C#N)cc3)CC2)CC1` [Example compound 3, 4-(4-((1-isopropylpiperidin-4-yl)oxy)piperidin-1-yl)benzonitrile hydrochloride], the EC50 is reported as 0.031 µM.
Work on `Clc1ccc(CCCOCCCN2CCCCC2)cc1` [Example compound 6, 1-(3-(3-(4-chlorophenyl)propoxy)propyl)piperidine, reference compound] yielded an EC50 of 0.014 µM.
`C[C@@H]1CCCN1CCCOc1ccc(-c2ccc(=O)[nH]n2)cc1` [Example compound 7, (R)-6-(4-(3-(2-methylpyrrolidin-1-yl)propoxy)phenyl)pyridazin-3(2H)-one, reference compound] was tested, and the EC50 was 0.25 µM.
Compound `N=C(NCc1ccc(Cl)cc1)SCCCc1c[nH]cn1` [Example compound 8, 3-(1H-imidazol-4-yl)propyl 4-chlorobenzylcarbamimidothioate dihydrobromide, reference compound] has an EC50 of 0.048 µM.

Same assay, conditions: all concentrations (0.3 nM-10 uM), FIG. 1b
`c1ccc(COCCCc2cnc[nH]2)cc1` [Example compound 4, 4-[3-(Phenylmethoxy)propyl]-1H-imidazole oxalate, reference compound] was tested, and the “effect on OPC differentiation” value was “didn't show any effect”.
In the case of `c1nc(CCCC2CCNCC2)c[nH]1` [Example compound 5, 4-[3-(1H-Imidazol-4-yl)propyl]piperidine dihydrobromide, reference compound], the “effect on OPC differentiation” value is reported as “didn't show any effect”.

— patent US20150080380A1, “Therapeutic Uses” (GLAXOSMITHKLINE INTELLECTUAL PROPERTY DEVELOPMENT LIMITED, priority 2012, published 2015)
